# Laboratory results from patent US8598132B2, “Glycosylated indolocarbazoles, method for obtaining same and uses thereof” (Universidad de Oviedo, priority 2008, dated 2013).
# How the values were obtained:
# Assay type in all cases: biochemical
# Conditions in all cases: read-out: remaining kinase activity (in %) / percentage of inhibition; for inhibition at 0.01 µM: compound at 10 nM; for inhibition at 0.1 µM: compound at 100 nM
# p38a = molecular target: T1, p38a (Homo sapiens, UniProt Q16539); experiment: LabChip (Caliper) kinase assay, p38a
# T1 construct: purchased Carna Biosciences
# T1 sequence (Q16539 whole entry): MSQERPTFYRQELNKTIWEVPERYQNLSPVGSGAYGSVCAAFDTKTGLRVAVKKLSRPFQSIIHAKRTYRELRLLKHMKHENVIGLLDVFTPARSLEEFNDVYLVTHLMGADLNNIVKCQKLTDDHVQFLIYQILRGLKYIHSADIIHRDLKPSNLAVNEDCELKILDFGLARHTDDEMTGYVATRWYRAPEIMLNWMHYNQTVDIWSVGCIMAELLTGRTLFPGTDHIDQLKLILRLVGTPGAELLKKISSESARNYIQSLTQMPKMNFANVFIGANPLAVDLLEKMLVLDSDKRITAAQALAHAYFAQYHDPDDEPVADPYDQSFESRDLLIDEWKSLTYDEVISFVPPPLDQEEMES
# Method: (§1) The analysis of kinase activity described here was performed using LabChip (Caliper Life Sciences), specifically the Caliper LC3000 and the EZ Reader II instruments.
# (§2) The kinase assay used measures the conversion of a fluorescent peptide (substrate) to a phosphorylated product. The reaction mixture, in a microplate well, is introduced by a capillary in a chip where the non-phosphorylated substrate and the phosphorylated product are separated by […]. The intensity of the fluorescent signal over time is related to the reaction progress. The phosphorylated product migrates quicker than the non-phosphorylated substrate and the signals of the two forms of the peptide appear as differentiated peaks. The Caliper determines the peak height and calculates the ratio of product to the peak sum (P/(P+S)). This value is used to compare wells with compounds and wells with controls and thus determine the % of inhibition for the given product.
# (§3) The followings kinases were used for the enzymatic inhibition studies, between brackets the value of the Michaelis-Menten constant, Km, of the ATP (Adenosine triphosphate) for each kinase, in μM: obtained from Carna Biosciences: MAPKAPK2 (4.6), AurA (3.6), AurB (5), PKCζ (3.8), RSK1 (23.3), PRAK (5), Erk1 (33.4), PKD2 (32.1), CK1d (16.3), CHK1 (33), ABL (61.7), FYN (36), LYNa (17), CHK2 (57.8), MET (79.5), LCK (28.5), SRC (38), GSK3β (7.3), Erk2 (62.1), PKACα (1.7), AKT2 (186.1), INSR (871.8), p38a (396.5), AKT1(48), MSK1 (21.2), PKCβ2 (84.8), ROCK2 (3.3), PIM2 (4.9), AMPK (38.6), KDR (164.8), IRAK4 (196.5), SGK1 (121.8), SYK (33.5); obtained from Invitrogen: CDK2 (57.6), BTK (123), HGK (80); obtained from Upstate: MST2 (36.6), PKGα (16), PAK2 (1.9), IGF1R (320), FGFR1 (171), MARK1 (33), CAMK2δ (22.4), c-TAK1 (66), DYRK1a (18.1), CaMK4 (3.9), FLT3 (350), c-Raf (6.2), P70S6K (95).
# (§4) The compounds were dissolved in 100% DMSO and were diluted at 25 times the final concentration desired for the assay. In the case of the determination of Cl50, serial dilutions were made to reach eight concentrations and give rise to the inhibition curve. 1 μL of each concentration is transferred, in duplicate to a 384-well microplate. 12 μL of enzymatic buffer is added to each well containing purified kinase (several suppliers as indicated above), 100 mM HEPES, pH 7.5, 1 mM DTT (Calbiochem), 0.002% Brij-35 (Sigma) and also in presence of 10 mM MgCl2 as cofactor, except for INSR and IRAK4 wherein 10 mM MnCl2 is used instead of MgCl2. For the kinases CAMK26 and CAMK4, 1 mM CaCl2 and 6.7 μg/mL of calmodulin are also added. For KDR kinase, 0.05% of the CHAPSO detergent is added. For the c-Raf kinase, 10 mM MnCl2 is added. For PKCβ2 0.02 μg/mL of PS/PMA is added. For PKGα se 10 μM of cGMP (cyclic guanosine monophosphate) is added. The compound and the enzyme are left for 15 minutes preincubation and, then, the following are added to each well: 12 μL of peptide buffer/ATP containing 100 mM HEPES, pH 7.5, 1.5 μM peptide marker with fluorescein (specific for the corresponding kinase), ATP (at concentration KM), and 0.002% Brij-35 to start the reaction. Generally, the reactions are incubated for 1-1.5 h at ambient temperature to obtain an adequate conversion (15-40%) of the peptide to the phosphorylated product. The reactions were ended by the addition of 45 μL of buffer containing 0 mM EDTA. The microplates were read by the LabChip 3000 using a 12-channel LabChip. The P/(P+S) values were obtained as described above and the CI50 curves were generated using XIfit. […]
# MST2 = molecular target: T2, MST2 (Homo sapiens, UniProt Q13188); experiment: LabChip (Caliper) kinase assay, MST2
# T2 construct: purchased Upstate
# T2 sequence (Q13188 1-491): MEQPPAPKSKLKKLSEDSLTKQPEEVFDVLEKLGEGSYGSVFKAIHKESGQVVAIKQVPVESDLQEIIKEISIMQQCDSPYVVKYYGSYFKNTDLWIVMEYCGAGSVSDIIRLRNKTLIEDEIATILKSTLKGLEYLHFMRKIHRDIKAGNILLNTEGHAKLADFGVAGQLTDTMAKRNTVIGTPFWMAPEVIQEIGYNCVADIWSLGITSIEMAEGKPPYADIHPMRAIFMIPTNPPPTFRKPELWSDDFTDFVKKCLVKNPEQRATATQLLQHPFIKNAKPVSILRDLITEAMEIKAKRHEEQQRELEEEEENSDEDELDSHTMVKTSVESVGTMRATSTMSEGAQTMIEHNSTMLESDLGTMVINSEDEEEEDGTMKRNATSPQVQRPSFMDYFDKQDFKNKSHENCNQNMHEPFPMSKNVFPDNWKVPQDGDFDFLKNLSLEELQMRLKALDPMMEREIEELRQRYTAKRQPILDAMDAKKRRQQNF
# Method: as §1, §2, §3, §4
# SGK1 = molecular target: T3, SGK1 (Homo sapiens, UniProt O00141); experiment: LabChip (Caliper) kinase assay, SGK1
# T3 construct: purchased Carna Biosciences
# T3 sequence (O00141 1-431): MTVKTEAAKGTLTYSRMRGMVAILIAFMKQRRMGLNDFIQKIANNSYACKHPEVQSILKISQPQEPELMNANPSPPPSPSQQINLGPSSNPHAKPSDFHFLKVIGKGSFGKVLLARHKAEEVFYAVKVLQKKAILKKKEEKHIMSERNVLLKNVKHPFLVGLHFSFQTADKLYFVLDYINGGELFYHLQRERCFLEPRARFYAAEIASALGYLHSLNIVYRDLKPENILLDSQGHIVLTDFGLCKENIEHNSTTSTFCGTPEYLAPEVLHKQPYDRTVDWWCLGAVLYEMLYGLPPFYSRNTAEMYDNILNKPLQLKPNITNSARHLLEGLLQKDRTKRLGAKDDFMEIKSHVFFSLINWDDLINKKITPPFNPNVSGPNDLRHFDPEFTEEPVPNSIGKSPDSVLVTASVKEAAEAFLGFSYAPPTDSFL
# Method: as §1, §2, §3, §4
# Erk2 = molecular target: T4, Erk2 (Homo sapiens, UniProt P28482); experiment: LabChip (Caliper) kinase assay, Erk2
# T4 construct: purchased Carna Biosciences
# T4 sequence (P28482 whole entry): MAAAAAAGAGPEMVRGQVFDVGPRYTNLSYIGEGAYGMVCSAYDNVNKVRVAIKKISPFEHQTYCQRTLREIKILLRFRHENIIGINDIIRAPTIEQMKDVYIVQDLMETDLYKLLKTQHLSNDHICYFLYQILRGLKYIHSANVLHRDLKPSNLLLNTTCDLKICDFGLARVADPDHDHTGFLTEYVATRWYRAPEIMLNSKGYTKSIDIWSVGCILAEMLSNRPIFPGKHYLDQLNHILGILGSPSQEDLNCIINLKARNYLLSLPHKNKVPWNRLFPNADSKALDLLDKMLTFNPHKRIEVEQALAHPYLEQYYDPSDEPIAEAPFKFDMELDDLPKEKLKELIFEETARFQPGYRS
# Method: as §1, §2, §3, §4
Compound,inhibition at 0.01 µM (p38a) [%],inhibition at 0.1 µM (p38a) [%],inhibition at 0.01 µM (MST2) [%],inhibition at 0.1 µM (MST2) [%],inhibition at 0.01 µM (SGK1) [%],inhibition at 0.1 µM (SGK1) [%],inhibition at 0.01 µM (Erk2) [%],inhibition at 0.1 µM (Erk2) [%]
"C[C@@H]1O[C@@H](n2c3ccccc3c3c4c(c5c6ccccc6[nH]c5c32)C(=O)NC4=O)[C@H](O)[C@H](O)[C@H]1O [formula (III), N^13-1′-β-L-rhamnosylarcyriaflavin]",0,-1,2,10,8,13,-6,-4
"C[C@@H]1O[C@@H](n2c3ccccc3c3c4c(c5c6ccccc6[nH]c5c32)C(=O)NC4=O)C[C@H](O)[C@H]1O [formula (IV), N^13-1′-β-L-olivosylarcyriaflavin]",-2,-2,2,15,9,17,-2,-3
"C[C@@H]1O[C@@H](n2c3ccccc3c3c4c(c5c6ccccc6[nH]c5c32)C(=O)NC4=O)C[C@@H](O)[C@H]1O [formula (V), N^13-1′-β-L-digitoxosylarcyriaflavin]",1,-2,16,54,17,37,-4,0
"C[C@H]1O[C@@H](n2c3ccccc3c3c4c(c5c6ccccc6[nH]c5c32)C(=O)NC4=O)C[C@@H](O)[C@@H]1O [formula (VI), N^13-1′-β-D-olivosylarcyriaflavin]",-1,-1,13,65,12,27,-1,30
"C[C@@H]1O[C@@H](n2c3ccccc3c3c4c(c5c6ccccc6[nH]c5c32)CNC4=O)[C@H](O)[C@H](O)[C@H]1O [formula (XII), N^13-1′-β-L-rhamnosyl-k252c]",-1,0,4,19,7,6,-3,-1
"C[C@@H]1O[C@@H](n2c3ccccc3c3c4c(c5c6ccccc6[nH]c5c32)CNC4=O)C[C@H](O)[C@H]1O [formula (XIII), N^13-1′-β-L-olivosyl-k252c]",-2,-3,4,33,8,15,-4,3
"C[C@@H]1O[C@@H](n2c3ccccc3c3c4c(c5c6ccccc6[nH]c5c32)CNC4=O)C[C@@H](O)[C@H]1O [formula (XIV), N^13-1′-β-L-digitoxosyl-k252c]",-1,-2,7,34,6,14,-4,0
"C[C@H]1O[C@@H](n2c3ccccc3c3c4c(c5c6ccccc6[nH]c5c32)CNC4=O)C[C@@H](O)[C@@H]1O [formula (XV), N^13-1′-β-D-olivosyl-k252c]",-1,-3,12,78,9,12,-4,-2
